Assay [1] has as its system Male non-fasted Wistar rats. The assay is described as follows: Glucose challenge test (i.p. glucose) in rats. Type of assay: in vivo. Conditions: oral treatment 30 min before i.p. glucose; extracts 6 mg/kg; blood samples 0-120 min; one-way ANOVA, Student-Newman-Keuls. The procedure:
(§1) A common way of testing for an effect of extracts or new chemical entities on blood glucose levels is the glucose challenge test (Verspohl, E. J.: Recommended testing in diabetes research. Planta Med 68 (7): 581-90, 2002) in which rats are given the extract, control, or a known antidiabetic substance with (challenge) and without (basal) an intraperitoneal (i.p.) dose of glucose. The extracts are given orally 30 min. before the glucose challenge. Blood samples are taken sublingual at time points 0, 15, 30, 60, and 120 minutes for the glucose challenge or 0, 30, 60, 120, and 180 minutes for basal blood glucose levels. This sampling scheme ensures to monitor both effects of extracts on basal blood glucose levels over a longer time period and the blood glucose levels after glucose challenge closely enough. […]
(§2) Blood was drawn at the appropriate time points from the sublingual vein after a short halothane anesthesia and stored at 4° C. with addition of heparin. […] The supernatant plasma was taken and analyzed using an autoanalyzer (Merck, Darmstadt). […]
(§3) Both percent and AUC data were analyzed by one-way ANOVA and Student-Newman-Keuls Multiple Comparison Test using Graphpad 4.0 Software, San Diego, USA. The AUC (area under the curve) was calculated using the trapezoidal rule without extensions beyond the last time point measured.

In assay [2] the test system is Male non-fasted Wistar rats. The assay is described as follows: Basal blood glucose levels in rats (no glucose challenge). Type of assay: in vivo. Conditions: oral treatment, extracts 6 mg/kg, blood samples 0-180 min, one-way ANOVA, Student-Newman-Keuls. The procedure: as §1, §2, §3

This note sets out measurements from patent US20140242200A1, “WATER-SOLUBLE EXTRACTS OF ARTEMISIA DRACUNCULUS (TARRAGON) FOR IMPROVEMENT OF GLUCOSE METABOLISM” (Finzelberg GmbH & Co. KG, priority 2008, published 2014).

Take `COc1ccc(Cl)cc1C(=O)NCCc1ccc(S(=O)(=O)NC(=O)NC2CCCCC2)cc1` [glyburide]: the “effect on lowering the blood glucose levels following the i.p. glucose challenge” value in assay [1] is on record as “significant effect”. For the same compound, the “effect on basal blood glucose levels” value in assay [2] was “significant effect”.

On to `N[C@@H](CC(=O)N1CCn2c(nnc2C(F)(F)F)C1)Cc1cc(F)c(F)cc1F` [sitagliptin], for which the “effect on lowering the blood glucose levels following the i.p. glucose challenge” value in assay [1] is on record as “significant effect”. In assay [2], the “effect on basal blood glucose levels” value is given as “significant effect”.
